Converted amounts (≈) assume the structure as drawn. Where two headings read alike, the source gives them in different places.
Assays:
[1] = system: Ancylostoma ceylanicum hookworms; settings: cited from earlier work; for % Parasite reduction: A. ceylanicum infections in hamsters
BaCC [2] = test: Time to kill: CFU/mL of BaCC after terpene treatment; assay type: cell-based, Bacillus thuringiensis
Experimental: In order to determine which terpene kills BaCC in the shortest amount of time, we incubated 5 mL of BaCC culture with three terpenes at 1 mg/mL at 4° C. for 1, 2, 3 and 5 hours. No terpene control and no bacteria controls were carried out simultaneously. After incubation with terpenes, samples were centrifuged and the pellets were washed with 5 mL of 1M NaCl once and 5 mL of sterile distilled water twice in order to remove the terpenes. The pellets were re-suspended in the original volume and plated on LB agar with kanamycin and erythromycin. Plates were incubated overnight at 30° C.; the next day, the number of colonies on the plates were enumerated and colony forming units (CFU)/mL calculated.
To assess terpene killing at shorter time points, BaCC culture was grown in 3× LB for 48 h as described above and 60 ml of cultures were aliquoted in sterile tubes. Carvacrol and geraniol were added to the final concentration of 1 mg/mL, and the tubes were placed on a rotator at 4° C. for 15 minutes. The negative control was prepared using sterile water instead of terpenes. At the end of the incubation period, the tubes were centrifuged at 2000× g for 10 minutes and pellets washed with 60 ml of 1 M NaCl once and washed with 60 mL of sterile distilled water twice. Pellets were re-suspended in 1.2 mL of sterile distilled water to concentrate the culture 50 times. Concentrated terpene treated and control samples were plated on LB agar plates containing kanamycin and erythromycin and incubated overnight at 30° C. The number of colonies were counted the next day and CFU/mL calculated for each time point.

BaCC [3] = test: Minimum inhibitory concentration of terpenes against BaCC (broth microdilution); assay type: cell-based; settings: Bacillus thuringiensis; 24 h at 30° C. in LB; no absorbance increase; read-out: MIC μg/mL (100)
Experimental: Three terpenes were tested against BaCC including: carvacrol, geraniol and farnesol, by using the broth microdilution method as described in Agaisse and Lereclus, J. Bacteriol. 176, 4734-4741, 1994 and Agaisse and Lereclus, Mol. Microbiol. 13, 97-107, 1994 with some modifications. Briefly, BaCC from a single colony was grown in 5 mL of LB medium supplemented with 10 μg/mL erythromycin+200 μg/mL kanamycin overnight (O.D. (600) of 4.8, 2.3×10^7 CFU/mL). Terpene solutions were prepared at 1 mg/mL in LB. One hundred μL of two-fold serial dilutions of each terpene in LB were prepared in 96-well microtiter plates over the range of 1000 to 3.9 μg/mL in triplicate. LB without terpenes was used as a negative control. BaCC culture was diluted 100 times, and 100 μL of BaCC culture was added to the wells. Absorbance at 600 nm was recorded before and after the incubation to monitor bacterial growth. The MICs were determined after incubation for 24 h at 30° C. without shaking.

Ancylostoma caninum = Ancylostoma caninum hookworm infection in dogs (fecal egg count, capsule endoscopy); assay type: in vivo
Experimental: Two beagles were inoculated per os with 1000 Ancylostoma caninum larvae. Forty one days post-infection, stool was collected for determination of fecal egg loads and the dog intestines were imaged using capsule endoscopy to count hookworms (Lee, A., et al. Int. J. Parasitol. 41, 1377-1383, 2011). One dose of Cry5B SCL (˜40 mg/kg) was given by gavage on each of day 42 and 44 post-infection. On day 49 post-infection a final fecal egg count was taken and capsule endoscopy repeated for final hookworm counts.

[4] = system: Ancylostoma ceylanicum hookworms; test: A. ceylanicum hookworm curative experiment in Syrian hamsters (worm burdens, fecal egg counts); assay type: in vivo
Experimental: Studies of Ancylostoma ceylanicum hookworms in Syrian hamsters were carried out as previously described (Hu, Y., et al. PLoS One, 8, e70702, 2013; Hu, Y., et al. Appl Environ Microbiol, 79, 5527-5532, 2013). Briefly, 4-6 week old male hamsters were infected with 150 infectious third staged larvae per os. On day 17 post-infection, an overnight collection of stool is taken and fecal egg counts (FECs) taken the next day. The hamsters are assigned to groups based on FEC so that there is roughly the same level of infection (same average egg per gram of feces or EPG) in all groups. On day 18 post-infection, the hamsters are weighed for dosing purposes and then gavaged with treatments as described in each experiment. On day 21 post-infection, another overnight collection of stool is taken for FECs. On day 22 post-infection, the animals were euthanized. Total hookworms in the small intestine were counted and EPGs calculated.
For all experiments involving cimetidine, hamsters or mice were pre-gavaged with 200 μL of an 8.75% cimetidine solution 15 minutes prior to therapeutic treatment (Stepek, G., et al. Parasitology, 134, 103-112, 2007).
For in vivo curative experiments, male hamsters were infected per os with 150 A. ceylanicum infectious larvae. On day 17 postinoculation (p.i.), a fecal sample was collected from each hamster, and the number of eggs was counted using the modified McMaster technique (13). On the basis of these fecal egg counts, the hamsters were segregated to ensure that the groups (control and treatment) had roughly equivalent infection levels. […] The hamsters were sacrificed on day 22 p.i., and intestinal parasite burdens were determined as described previously (14). The one-tailed Mann-Whitney test was performed to compare the two groups for significance in the experiment using a dose of 10 mg/kg of body weight (data were calculated and plotted using Prism 5 [GraphPad Software Inc., La Jolla, CA]). […]

[5] = system: Heligmosomoides polygyrus; test: Heligmosomoides polygyrus infection in STAT6-/- mice; assay type: in vivo; settings: immunosuppressed mice lacking STAT6
Excerpt: Such a result is not surprising given that Cry5B directly intoxicates STH parasites in vitro. This is not true of all anthelmintics, e.g., DEC and in some cases ivermectin, for which it appears that involvement of the immune system is important for their mechanism of action. To confirm that the immune system is not essential for Cry5B action, STAT6−/− mice were infected with Heligmosomoides polygyrus STH parasites. STAT6 is required for the TH2 response required for normal expulsion of STH parasites.

[6] = Average of dogs (n = 2), 40 mg/kg
[7] = dogs (n = 2), post- vs pre-treatment, 40 mg/kg

## CCCSc1ccc2nc(NC(=O)OC)[nH]c2c1 [Albendazole, albendazole]
[1]; 1.25 mg/kg
  % Parasite reduction: 88%
[1]; hamsters, 1.25-mg/kg (4.7 μmol/kg) dose
  reduction of A. ceylanicum burdens: 88%
[1]; in vivo
  dose required to clear the same infection: 5 mg/kg

## CC(C)=CCCC(C)=CCCC(C)=CCO [Farnesol, farnesol]
BaCC [2]; 1 h at 4° C.
  CFU/ml (1 mg/mL terpene treatment for time indicated): 1.00 × 10^7 CFU/ml
BaCC [2]; 3 h at 4° C.
  CFU/ml (1 mg/mL terpene treatment for time indicated): 1.30 × 10^5 CFU/ml
BaCC [2]; 5 h at 4° C.
  CFU/ml (1 mg/mL terpene treatment for time indicated): 0 CFU/ml
BaCC [2]; time 0
  CFU/ml (1 mg/mL terpene treatment for time indicated): 2.31 × 10^7 CFU/ml
BaCC [3]
  MIC: 500 µg/mL (≈ 2250 µM)

## CC(C)=CCC/C(C)=C/CO [Geraniol, geraniol]
BaCC [2]; 15 min at 4° C., culture concentrated 50 times (50X conc.) before plating
  CFU/ml (1 mg/mL terpene treatment for time indicated): 100 CFU/ml
BaCC [2]; 1 h at 4° C.
  CFU/ml (1 mg/mL terpene treatment for time indicated): 0 CFU/ml
BaCC [2]; 3 h at 4° C.
  CFU/ml (1 mg/mL terpene treatment for time indicated): 0 CFU/ml
BaCC [2]; 5 h at 4° C.
  CFU/ml (1 mg/mL terpene treatment for time indicated): 0 CFU/ml
BaCC [2]; time 0
  CFU/ml (1 mg/mL terpene treatment for time indicated): 2.31 × 10^7 CFU/ml
BaCC [3]
  MIC: 500 µg/mL (≈ 3240 µM)

## c1ccc([C@H]2CN3CCSC3=N2)cc1 [Levamisole, levamisole]
[1]; 10 mg/kg
  % Parasite reduction: 60%
[1]; hamsters, 10-mg/kg dose
  reduction of A. ceylanicum burdens: 60%

## CN1CCCN=C1/C=C/c1cccs1 [Pyrantel, pyrantel]
[1]; 10 mg/kg
  % Parasite reduction: 87%
[1]; hamsters, 10-mg/kg dose
  reduction of A. ceylanicum burdens: 87%

## C/C(=N/c1ccc(/N=C/c2ccc(/C=N/c3ccc(/N=C(/C)N(C)C)cc3)cc2)cc1)N(C)C [Tribendimidine, tribendimidine]
[1]; 10 mg/kg
  % Parasite reduction: 75%
[1]; hamsters, 10-mg/kg dose
  reduction of A. ceylanicum burdens: 75%

B1: Cry5B: Bacillus thuringiensis crystal (Cry) protein Cry5B, SEQ ID NO:1; purified full-length protein (protein, listed as Bacillus thuringiensis)
chain: MATINELYPVPYNVLAHPIKEVDDPYSWSNLLKGIQEGWEEWGKTGQKKLFEDHLTIAWNLYKTGKLDYFALTKASISLIGFIPGAEAAVPFINMFVDFVWPKLFGANTEGKDQQLFNAIMDAVNKMVDNKFLSYNLSTLNKTIEGLQGNLGLFQNAIQVAICQGSTPERVNFDQNCTPCNPNQPCKDDLDRVASRFDTANSQFTQHLPEFKNPWSDENSTQEFKRTSVELTLPMYTTVATLHLLLYEGYIEFMTKWNFHNEQYLNNLKVELQQLIHSYSETVRTSFLQFLPTLNNRSKSSVNAYNRYVRNMTVNCLDIAATWPTFDTHNYHQGGKLDLTRIILSDTAGPIEEYTTGDKTSGPEHSNITPNNILDTPSPTYQHSFVSVDSIVYSRKELQQLDIATYSTNNSNNCHPYGLRLSYTDGSRYDYGDNQPDFTTSNNNYCHNSYTAPITLVNARHLYNAKGSLQNVESLVVSTVNGGSGSCICDAWINYLRPPQTSKNESRPDQKINVLYPITETVNKGTGGNLGVISAYVPMELVPENVIGDVNADTKLPLTQLKGFPFEKYGSEYNNRGISLVREWINGNNAVKLSNSQSVGIQITNQTKQKYEIRCRYASKGDNNVYFNVDLSENPFRNSISFGSTESSVVGVQGENGKYILKSITTVEIPAGSFYVHITNQGSSDLFLDRIEFVPKIQFQFCDNNNLHCDCNNPVDTDCTFCCVCTSLTDCDCNNPRGLDCTLCCQVENQLPSFVTLTDLQNITTQVNALVASSEHDTLATDVSDYEIEEVVLKVDALSGEVFGKEKKALRKLVNHTKRLSKARNLLIGGNFDNLDAWYRGRNVVNVSDHELFKSDHVLLPPPTLYSSYMFQKVEESKLKANTRYTVSGFIAHAEDLEIVVSRYGQEVKKVVQVPYGEAFPLTSRGAICCPPRSTSNGKPADPHFFSYSIDVGTLDVEANPGIELGLRIVERTGMARVSNLEIREDRPLKKNELRNVQRAARNWRTAYDQERAEVTALIQPVLNQINALYENEDWNGAIRSGVSYHDLEAIVLPTLPKLNHWFMSDMLGEQGSILAQFQEALDRAYTQLEESTILHNGHFTTDAANWTIEGDAHHAILEDGRRVLRLPDWSSSVSQTIEIENFDPDKEYQLVFHAQGEGTVSLQHGEEGEYVETHPHKSANFTTSHRQGVTFETNKVTVEITSEDGEFLVDHIALVEAPLPTDDQSSDGNTTSNTNSNTSMNNNQ
modifications: source = /note="Bacillus thuringiensis pesticidal crystal (Cry)"
Ancylostoma caninum; Average of dogs (n = 2)
  Fecal Egg Count Pre-Treatment: 12581 EPG of Feces
  Hookworm Burden Pre-Treatment: 70
Ancylostoma caninum; [6]
  Fecal Egg Count Post-Treatment: 1081.5 EPG of Feces
  Hookworm Burden Post-Treatment: 3.5
Ancylostoma caninum; Dog 1, capsule endoscopy, day 41 post-infection
  Hookworm Burden Pre-Treatment: 84
Ancylostoma caninum; Dog 1, capsule endoscopy, day 49, ~40 mg/kg on days 42 and 44
  Hookworm Burden Post-Treatment: 4
Ancylostoma caninum; Dog 1, day 41 post-infection
  Fecal Egg Count Pre-Treatment: 15750 EPG of Feces
Ancylostoma caninum; Dog 1, day 49 post-infection, ~40 mg/kg by gavage on days 42 and 44
  Fecal Egg Count Post-Treatment: 1590 EPG of Feces
Ancylostoma caninum; Dog 2, capsule endoscopy, day 41 post-infection
  Hookworm Burden Pre-Treatment: 56
Ancylostoma caninum; Dog 2, capsule endoscopy, day 49, ~40 mg/kg on days 42 and 44
  Hookworm Burden Post-Treatment: 3
Ancylostoma caninum; Dog 2, day 41 post-infection
  Fecal Egg Count Pre-Treatment: 9412 EPG of Feces
Ancylostoma caninum; Dog 2, day 49 post-infection, ~40 mg/kg by gavage on days 42 and 44
  Fecal Egg Count Post-Treatment: 573 EPG of Feces
Ancylostoma caninum; [7]
  % Reduction of Fecal Egg Count: 91.4%
  % Reduction of Hookworm Burden: 95%
Ancylostoma caninum; ~40 mg/kg by gavage on days 42 and 44 post-infection
  efficacy against A. caninum in dogs: highly effective
[4]; A. ceylanicum infections in hamsters, 10 mg/kg, This Example
  % Parasite reduction: 93%
[4]; hamsters
  efficacy after pre-exposure to two doses of Cry5B prior to infection: not altered
[4]; hamsters pre-gavaged with cimetidine (and NaHCO3) before treatment
  effect of pre-neutralization of stomach acid on efficacy: improved
[1]; hamsters, purified protein at 10 mg/kg, previously published data (ref 14)
  hookworm burden reduction: 65%
[5]
  efficacy against H. polygyrus: effective
